Data reported in PubChem BioAssay AID1918932 (Molecular Pharmacology Branch, DTP, NCI, 2023).
pIC50: −log10 of the molar value.

Tested on: 171881-019-R-J1-PDC complex spheroid viability
Test: Anticancer human tumor 171881-019-R-J1-PDC patient-derived invasive breast carcinoma cell line growth inhibition
Conditions: for pIC50: curve of first compound; for viability, T/C: stronger effect = lower value
Procedure, shortened: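 Drug combinations with the LSD1 inhibitor iadademstat tested on tumor cells co-cultured as spheroids with endothelial cells and mesenchymal stem cells. Concentrations descended in half-log increments from clinical Cmax or 10 microM.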

[1] = second compound 0.1 µM, first compound 0.00316 µM
[2] = second compound 0.1 µM, first compound 0.01 µM
[3] = second compound 0.1 µM, first compound 0.0316 µM
[4] = second compound 0.1 µM, first compound 0.1 µM
[5] = second compound 0.1 µM, first compound 0.316 µM
[6] = second compound 0.1 µM, first compound 1 µM
[7] = second compound 0.316 µM, first compound 0.00316 µM
[8] = second compound 0.316 µM, first compound 0.01 µM
[9] = second compound 0.316 µM, first compound 0.0316 µM
[10] = second compound 0.316 µM, first compound 0.1 µM
[11] = second compound 0.316 µM, first compound 0.316 µM
[12] = second compound 0.316 µM, first compound 1 µM
[13] = second compound 1 µM, first compound 0.00316 µM
[14] = second compound 1 µM, first compound 0.01 µM
[15] = second compound 1 µM, first compound 0.0316 µM
[16] = second compound 1 µM, first compound 0.1 µM
[17] = second compound 1 µM, first compound 0.316 µM
[18] = second compound 1 µM, first compound 1 µM
[19] = second compound 3.16 µM, first compound 0.00316 µM
[20] = second compound 3.16 µM, first compound 0.01 µM
[21] = second compound 3.16 µM, first compound 0.0316 µM
[22] = second compound 3.16 µM, first compound 0.1 µM
[23] = second compound 3.16 µM, first compound 0.316 µM
[24] = second compound 3.16 µM, first compound 1 µM
[25] = second compound 10 µM, first compound 0.00316 µM
[26] = second compound 10 µM, first compound 0.01 µM
[27] = second compound 10 µM, first compound 0.0316 µM
[28] = second compound 10 µM, first compound 0.1 µM
[29] = second compound 10 µM, first compound 0.316 µM
[30] = second compound 10 µM, first compound 1 µM
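Also: spheroids exposed to agents for 7 days after 3 days growth.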

O=C(C=Cn1cnc(-c2cc(C(F)(F)F)cc(C(F)(F)F)c2)n1)NNc1cnccn1 + NC1CC1c1ccc(-c2cccc(O)c2)cc1
pIC50 (second compound 0.1 µM): > 8.50
pIC50 (second compound 0.316 µM): > 8.50
pIC50 (second compound 1 µM): > 8.50
pIC50 (second compound 3.16 µM): > 8.50
pIC50 (second compound 10 µM): > 8.50
viability, T/C [1]: 19.1%
viability, T/C [2]: 13%
viability, T/C [3]: 4.97%
viability, T/C [4]: 2.14%
viability, T/C [5]: 2.1%
viability, T/C [6]: 1.99%
viability, T/C [7]: 21.3%
viability, T/C [8]: 14.4%
viability, T/C [9]: 5.36%
viability, T/C [10]: 2.27%
viability, T/C [11]: 2.08%
viability, T/C [12]: 1.91%
viability, T/C [13]: 23.4%
viability, T/C [14]: 16.1%
viability, T/C [15]: 9.98%
viability, T/C [16]: 2.64%
viability, T/C [17]: 2.11%
viability, T/C [18]: 1.82%
viability, T/C [19]: 25.9%
viability, T/C [20]: 17.5%
viability, T/C [21]: 5.43%
viability, T/C [22]: 2.42%
viability, T/C [23]: 2.5%
viability, T/C [24]: 2.17%
viability, T/C [25]: 25%
viability, T/C [26]: 16.5%
viability, T/C [27]: 6.08%
viability, T/C [28]: 11.4%
viability, T/C [29]: 6.91%
viability, T/C [30]: 3.16%

Nc1ncn(C2CC(O)C(CO)O2)c(=O)n1 (stereo not given) + NC1CCC(NC2CC2c2ccccc2)CC1
pIC50 (second compound 0.1 µM): < 6.00
pIC50 (second compound 0.316 µM): < 6.00
pIC50 (second compound 1 µM): < 6.00
pIC50 (second compound 3.16 µM): < 6.00
pIC50 (second compound 10 µM): < 6.00
viability, T/C [1]: 88.4%
viability, T/C [2]: 93.3%
viability, T/C [3]: 93.1%
viability, T/C [4]: 115%
viability, T/C [5]: 111%
viability, T/C [6]: 101%
viability, T/C [7]: 96%
viability, T/C [8]: 81.7%
viability, T/C [9]: 92.9%
viability, T/C [10]: 122%
viability, T/C [11]: 115%
viability, T/C [12]: 94.2%
viability, T/C [13]: 94.9%
viability, T/C [14]: 81.1%
viability, T/C [15]: 95.6%
viability, T/C [16]: 123%
viability, T/C [17]: 117%
viability, T/C [18]: 97.1%
viability, T/C [19]: 82.5%
viability, T/C [20]: 92.9%
viability, T/C [21]: 106%
viability, T/C [22]: 122%
viability, T/C [23]: 114%
viability, T/C [24]: 97.7%
viability, T/C [25]: 86.1%
viability, T/C [26]: 105%
viability, T/C [27]: 112%
viability, T/C [28]: 102%
viability, T/C [29]: 111%
viability, T/C [30]: 99.8%

NS(=O)(=O)OCC1CC(n2ccc3c(NC4CCc5ccccc54)ncnc32)CC1O (stereo not given) + NC1CC1c1ccc(-c2cccc(O)c2)cc1
pIC50 (second compound 0.1 µM): 7.99
pIC50 (second compound 0.316 µM): 7.95
pIC50 (second compound 1 µM): 8.00
pIC50 (second compound 3.16 µM): 7.89
pIC50 (second compound 10 µM): > 8.02
viability, T/C (second compound 0.1 µM, first compound 0.00949 µM): 51.1%
viability, T/C (second compound 0.1 µM, first compound 0.03 µM): 36.4%
viability, T/C (second compound 0.1 µM, first compound 0.0949 µM): 26.7%
viability, T/C (second compound 0.1 µM, first compound 0.3 µM): 27.4%
viability, T/C (second compound 0.1 µM, first compound 0.949 µM): 27.1%
viability, T/C (second compound 0.1 µM, first compound 3 µM): 23.3%
viability, T/C (second compound 0.316 µM, first compound 0.00949 µM): 52.9%
viability, T/C (second compound 0.316 µM, first compound 0.03 µM): 36.4%
viability, T/C (second compound 0.316 µM, first compound 0.0949 µM): 31.3%
viability, T/C (second compound 0.316 µM, first compound 0.3 µM): 28.1%
viability, T/C (second compound 0.316 µM, first compound 0.949 µM): 31.8%
viability, T/C (second compound 0.316 µM, first compound 3 µM): 21.4%
viability, T/C (second compound 1 µM, first compound 0.00949 µM): 51.3%
viability, T/C (second compound 1 µM, first compound 0.03 µM): 27.4%
viability, T/C (second compound 1 µM, first compound 0.0949 µM): 27.8%
viability, T/C (second compound 1 µM, first compound 0.3 µM): 30%
viability, T/C (second compound 1 µM, first compound 0.949 µM): 27.5%
viability, T/C (second compound 1 µM, first compound 3 µM): 21.9%
viability, T/C (second compound 3.16 µM, first compound 0.00949 µM): 56.5%
viability, T/C (second compound 3.16 µM, first compound 0.03 µM): 31.2%
viability, T/C (second compound 3.16 µM, first compound 0.0949 µM): 26%
viability, T/C (second compound 3.16 µM, first compound 0.3 µM): 24.1%
viability, T/C (second compound 3.16 µM, first compound 0.949 µM): 26.9%
viability, T/C (second compound 3.16 µM, first compound 3 µM): 21.1%
viability, T/C (second compound 10 µM, first compound 0.00949 µM): 45.1%
viability, T/C (second compound 10 µM, first compound 0.03 µM): 30.6%
viability, T/C (second compound 10 µM, first compound 0.0949 µM): 27.1%
viability, T/C (second compound 10 µM, first compound 0.3 µM): 27.6%
viability, T/C (second compound 10 µM, first compound 0.949 µM): 25.4%
viability, T/C (second compound 10 µM, first compound 3 µM): 19.5%
